Reference: US12077503B2, “Substituted cyclic amides and their use as herbicides” (FMC CORPORATION, priority 2015, dated 2024)
Read-outs that look alike come from different tables or passages of the source.

Assays:
Type in all cases: in vivo
[1] = system: barnyardgrass (Echinochloa crus-galli); assay: Test B flooded paddy test; conditions: Echinochloa crus-galli, Flood, 250 g ai/ha, read-out: Barnyardgrass plant response rating
Procedure, shortened: (§1)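 2-leaf plants; pots flooded 3 cm over soil; cpd added to paddy water; depth held; greenhouse 13–15 d; visual rating vs controls, 0 = no effect, 100 = complete control.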

[2] = system: ducksalad (Heteranthera limosa); assay: Test B flooded paddy test; conditions: Heteranthera limosa, Flood, 250 g ai/ha, read-out: Ducksalad plant response rating
Procedure, shortened: as §1

rice (Oryra sativa) = assay: Test B flooded paddy test; conditions: Oryza sativa, Flood, 250 g ai/ha, read-out: Rice plant response rating
Procedure, shortened: as §1

[3] = system: sedge, umbrella (small-flower umbrella sedge, Cyperus difformis); assay: Test B flooded paddy test; conditions: Cyperus difformis, Flood, 250 g ai/ha, read-out: Sedge, Umbrella plant response rating
Procedure, shortened: as §1

[4] = system: giant foxtail (Setaria faberii); assay: Test A preemergence; conditions: Setaria faberi, pre-emergence, 240 h; for pest or weed control at 125 g/ha: 125 g ai/ha; for pest or weed control at 500 g/ha: 500 g ai/ha; for pest or weed control at 31 g/ha: 31 g ai/ha, 0 to 100 scale (0 no effect, 100 complete control)
Procedure, shortened: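 Compounds were formulated in a non-phytotoxic solvent mixture with surfactant and applied as a preemergence directed soil spray after seeding, or sprayed postemergence over plants 2 to 10 cm tall at the one- to two-leaf stage. Evaluation after about 10 d compared treated with untreated controls, using a scale from 0 (no effect) to 100 (complete control).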

[5] = scale of 0 to 100 where 0 is no effect and 100 is complete control
[6] = preemergence, visual rating after approx. 10 d, 0 to 100 scale where 0 is no effect and 100 is complete control, read-out: Plant response rating, Foxtail, Giant
[7] = Preemergence, visual injury vs untreated controls after approximately 10 d, read-out: Foxtail, Giant plant response rating (0 to 100 scale where 0 is no effect and 100 is complete control)
[8] = Preemergence, read-out: Plant response rating, Foxtail, Giant
[9] = 0 to 100 scale where 0 is no effect and 100 is complete control
[10] = preemergence, visual injury rating, 0 to 100 scale where 0 is no effect and 100 is complete control, approximately 10 d, read-out: Foxtail, Giant plant response rating
[11] = preemergence, 0 to 100 scale where 0 is no effect and 100 is complete control, read-out: Foxtail, Giant plant response rating

SMILES | pest or weed control at 250 g/ha [1, 5] [%] | pest or weed control at 250 g/ha [2, 5] [%] | pest or weed control at 250 g/ha (rice (Oryra sativa); [5]) [%] | pest or weed control at 250 g/ha [3, 5] [%] | pest or weed control at 125 g/ha [4, 6] [%] | pest or weed control at 500 g/ha [4, 7] [%] | pest or weed control at 31 g/ha [4, 8] [%] | pest or weed control at 250 g/ha [1, 9] [%] | pest or weed control at 250 g/ha [2, 9] [%] | pest or weed control at 250 g/ha (rice (Oryra sativa); [9]) [%] | pest or weed control at 250 g/ha [3, 9] [%] | pest or weed control at 125 g/ha [4, 10] [%] | pest or weed control at 500 g/ha [4, 11] [%]
CC(F)(F)c1cccc([C@H]2CNC(=O)[C@@H]2C(=O)Nc2ccccc2S(C)(=O)=O)c1 [Compound 780] | 20 | 90 | 0 | 0 | 90 | 90 |  |  |  |  |  |  | 
CN1C[C@H](c2cc(F)cc(F)c2)[C@@H](C(=O)Nc2ncccc2F)C1=O [Compound 783] | 0 | 0 | 0 | 0 | 0 | 80 |  |  |  |  |  |  | 
CS(=O)(=O)c1ccccc1NC(=O)[C@H]1C(=O)NC[C@@H]1c1ccc(OC(F)F)cc1 [Compound 787] | 0 | 50 | 0 | 0 | 70 | 90 |  |  |  |  |  |  | 
Cc1cc([C@H]2CNC(=O)[C@@H]2C(=O)Nc2ccccc2F)ccc1Cl [Compound 789] | 20 | 100 | 0 | 0 | 60 | 90 |  |  |  |  |  |  | 
Cc1cc([C@H]2CNC(=O)[C@@H]2C(=O)Nc2cccc(F)c2F)ccc1Cl [Compound 790] | 40 | 100 | 0 | 0 | 70 | 90 |  |  |  |  |  |  | 
CN1CC[C@@H](c2cccc(C(F)(F)F)c2)[C@H](C(=O)Nc2ccccc2F)C1=O [Compound 794] | 40 | 30 | 20 | 0 | 90 |  | 30 |  |  |  |  |  | 
CSc1ccccc1NC(=O)[C@H]1C(=O)N(C)C[C@@H]1c1cc(C)c(C)c(C)c1 [Compound 798] | 75 | 50 | 40 | 0 | 90 |  | 70 |  |  |  |  |  | 
CSc1ccccc1NC(=O)[C@H]1C(=O)N(C)C[C@@H]1c1ccc(C(F)F)cc1 [Compound 799] | 65 | 80 | 30 | 0 | 90 |  | 70 |  |  |  |  |  | 
Cc1cc(F)cc([C@H]2CN(C)C(=O)[C@@H]2C(=O)Nc2ccc(F)c(F)c2F)c1 [Compound 801] | 90 | 90 | 30 | 40 | 90 |  | 80 |  |  |  |  |  | 
CN1C[C@H](c2ccc(C(F)F)cc2)[C@@H](C(=O)Nc2ccccc2F)C1=O [Compound 803] | 90 | 100 | 55 | 0 | 90 |  | 90 |  |  |  |  |  | 
CN1CC[C@H](c2cccc(OC(F)(F)F)c2)[C@@H](C(=O)Nc2cccc(F)c2F)C1=O [Compound 807] | 95 | 100 | 0 | 0 | 100 |  | 100 |  |  |  |  |  | 
CN1CC[C@H](c2cccc(OC(F)(F)F)c2)[C@@H](C(=O)Nc2cccc(Cl)c2F)C1=O [Compound 810] | 60 | 90 | 0 | 0 | 90 |  | 70 |  |  |  |  |  | 
N#Cc1cc([C@H]2CNC(=O)[C@]2(O)C(=O)Nc2ccccc2F)ccc1F [Compound 1200] |  |  |  |  |  |  |  | 0 | 0 | 0 | 0 | 0 | 0
CSc1ccccc1NC(=O)[C@H]1C(=O)NC[C@@H]1c1ccc(F)c(C#N)c1 [Compound 1201] |  |  |  |  |  |  |  | 0 | 50 | 0 | 0 | 70 | 80
CN1C[C@H](c2ccc3c(c2)OC(F)(F)O3)[C@@H](C(=O)Nc2ccc(F)c(F)c2F)C1=O [Compound 1204] |  |  |  |  |  |  |  | 70 | 100 | 0 | 0 | 90 | 90
COc1cc(C(F)(F)F)ccc1[C@H]1CN(C)C(=O)[C@@H]1C(=O)Nc1cccc(F)c1C [Compound 1205] |  |  |  |  |  |  |  | 40 | 100 | 20 | 0 | 100 | 100
Cc1c(F)cccc1NC(=O)[C@H]1C(=O)N(C)C[C@@H]1c1ccc(F)c(Br)c1 [Compound 1211] |  |  |  |  |  |  |  | 85 | 100 | 60 | 0 | 100 | 100
Cc1c(F)cccc1NC(=O)[C@H]1C(=O)N(C)C[C@@H]1c1ccc(OC(F)F)cc1 [Compound 1213] |  |  |  |  |  |  |  | 70 | 100 | 20 | 0 | 100 | 100
CN1C[C@H](c2cc(F)cc(C(F)(F)F)c2)[C@@H](C(=O)Nc2cccc(F)c2F)C1=O [Compound 1214] |  |  |  |  |  |  |  | 70 | 100 | 15 | 60 | 90 | 90
COc1ccc([C@H]2CN(C)C(=O)[C@@H]2C(=O)Nc2ccccc2F)c(OC)c1 [Compound 1215] |  |  |  |  |  |  |  | 0 | 70 | 0 | 0 | 60 | 90
COc1cc([C@H]2CN(C)C(=O)[C@@H]2C(=O)Nc2ccccc2F)cc(OC)c1OC [Compound 1217] |  |  |  |  |  |  |  | 0 | 40 | 25 | 0 | 90 | 100
Cc1ccc([C@H]2CCN(C)C(=O)[C@@H]2C(=O)Nc2cccc(F)c2F)cc1 [Compound 1220] |  |  |  |  |  |  |  | 70 | 95 | 10 | 0 | 90 | 90
CN1CC[C@H](c2ccc(C(F)(F)F)cc2)[C@@H](C(=O)Nc2cccc(F)c2F)C1=O [Compound 1225] |  |  |  |  |  |  |  | 80 | 100 | 20 | 0 | 90 | 90
CSc1ccccc1NC(=O)[C@H]1C(=O)N(C)C[C@@H]1c1cccc(C)c1 [Compound 1232] |  |  |  |  |  |  |  | 55 | 95 | 0 | 0 | 90 | 90
